Source: patent US12240828B2, “Heteroaromatic compounds as vanin inhibitors” (Boehringer Ingelheim International GmbH, priority 2018, dated 2025)

Experiments:
[1] = target: T1, FLAG-tagged Vanin-1 (AA 22-493, T26I) (Homo sapiens, UniProt O95497, T26I); assay: Vanin-1 enzymatic assay; assay type: biochemical; conditions: 0.1 nM Vanin-1, 3 μM D-pantethine, pantothenic acid formation by RapidFire MS; geometric mean if multiple measurements; read-out: VNN-1 IC50
T1 construct: FLAG-tagged Vanin-1 (AA 22-493, T26I, produced internally); FLAG; made in house
T1 sequence (O95497 22-493 T26I): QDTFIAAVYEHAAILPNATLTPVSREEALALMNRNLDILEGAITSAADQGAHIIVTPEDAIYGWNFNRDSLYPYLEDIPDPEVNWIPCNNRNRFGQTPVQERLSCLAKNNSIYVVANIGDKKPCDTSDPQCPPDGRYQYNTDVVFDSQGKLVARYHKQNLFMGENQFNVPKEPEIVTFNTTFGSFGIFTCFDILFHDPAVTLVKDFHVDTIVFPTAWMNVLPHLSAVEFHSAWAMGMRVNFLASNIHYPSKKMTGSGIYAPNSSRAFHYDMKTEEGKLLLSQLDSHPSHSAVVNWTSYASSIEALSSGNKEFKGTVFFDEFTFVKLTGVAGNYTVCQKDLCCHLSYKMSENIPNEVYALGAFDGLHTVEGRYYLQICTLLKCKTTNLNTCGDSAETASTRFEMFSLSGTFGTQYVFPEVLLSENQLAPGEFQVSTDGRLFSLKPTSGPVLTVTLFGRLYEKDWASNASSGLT
Experimental: The test compounds are dissolved in 100% DMSO at a concentration of 10 mM and in a first step diluted in DMSO to a concentration of 5 mM, followed by serial dilution steps in 100% DMSO. Dilution factor and number of dilution steps may vary according to needs. Typically 8 different concentrations by 1:5 dilutions are prepared, a further intermediate dilutions of the substances is carried out with assay buffer resulting in 1% final DMSO concentration in the assay.
0.1 nM of FLAG-tagged Vanin-1 (AA 22-493, T26I, produced internally) and test compounds are incubated at room temperature for 20 minutes in assay buffer (1 mM DTT, 0.0025% Brij-35, 50 mM HEPES, pH7.5). D-Pantethine (Sigma, Cat #P2125-5G) in assay buffer is added (final concentration 3 μM) and incubated for additional 30 minutes at room temperature. Total assay volume typically is 40 μl but might be adjusted according to needs. Reaction is stopped by adding equal volume of stop solution as the reaction mixture to reach 100 nM HD-pantothenic acid (as an internal standard) and 1% TFA. Assay plates are centrifuged for 2 minutes and the formation of pantothenic acid is detected by RapidFire Mass Spectrometry (mobile phase A: 0.1% formic acid and 0.01% trifluoroacetic acid in water; mobile phase B: 47.5% acetonitrile, 47.5% methanol, 0.1% formic acid and 0.01% trifluoroacetic acid in water) using a C18, 12 μL cartridge (Agilent Cat #G9205A).
The values given in Table I result from measurements of one or more samples. In case of multiple measurements the geometric mean values are given.

[2] = test system: Pantetheinase (vanin); assay: Human Whole Blood assay; assay type: cell-based; conditions: pantethine substrate, pantothenic acid formation by RapidFire MS, read-out: HWB IC50
Experimental: Human Whole Blood assay: Pantetheinase (vanin) converts panteheine into pantothenic acid and cysteamine. Accordingly, in the described protocol vanin activity is quantified by formation of pantothenic acid after pantetheine supplementation via pantethine. The assay is applicable to identify vanin inhibitors. Compound stocks are dissolved in DMSO at 10 mM. Further dilutions are performed in RPMI 1640 medium (Gibco, #A-10491-01) and final concentrations in the assay are 0.032 nM-500 nM.
Human blood is drawn into a blood bag (1% heparin, 50 I.E./mL). Blood is aliquoted into cavities of 96-deep-well plates at 290 μL and mixed with 10 μL compound solution or vehicle (30 sec at 1400 rpm on a shaker). Equilibration follows at room temperature, 250 rpm and for 30 min. The assay is starts by adding 10 μL of substrate solution (20 μM pantethine in 1 mM DTT, 0.0025% Brij-35, 50 mM HEPES, pH7.5) to each well, except for some blank wells which receive […] substrate buffer (1 mM DTT, 0.0025% Brij-35, 50 mM HEPES, pH7.5) only. Samples are thoroughly shaken (30 sec, 1400 rpm) and reaction is allowed to take place at room temperature, 250 rpm and for 5 min. The reaction is stopped by addition of a vanin tool inhibitor in excess (BI-1 total conc. 10 μM). Centrifugation of the plate follows at 4° C., 665 G for 10 min. Then the blood plasma samples (100 μL) are transferred into another 96-deep-well plate and proteins are precipitated (5 min on ice) by adding 100 μL of ice cold precipitation solution (1 μM labelled pantothenic acid (di-β-alanine-13C6,15N2 calcium salt, Sigma, #705837) in acetonitrile). Afterwards the plate is centrifuged (4° C., 3220 G, 10 min) and supernatants (50 μL) are collected into another 96-deep-well plate and mixed (10 sec, 1400 rpm) with 150 μL ice cold formic acid (0.1%, Carl Roth GmbH+Co.KG, #CP03.1). The formation of pantothenic acid is detected by RapidFire Mass Spectrometry. A TripleQuad 6500+ (ABSciex, Germany) is equipped with an LC-1290 system, a RapidFire autosampler (Agilent, Germany) and a C18 cartridge Type C 12 μL (Agilent Cat #G9526-80000). Mobile phase A is consisting of 0.09% formic acid and 0.01% trifluoroacetic acid in water and mobile phase B of 0.09% formic acid and 0.01% trifluoroacetic acid in acetonitrile/methanol/water=47.5/47.5/5.

SMILES | IC50 [1] | IC50 [2]
CN(C(=O)C1(C#N)CC1)[C@H]1CCN(C(=O)c2ccc(NC(C)(C)c3ccccc3)nc2)C1 [Example 4.5] | 0.14 nM | 1.27 nM
CC(C)(Nc1ccc(C(=O)N2CC[C@H](N3CCCC3=O)C2)cn1)c1ccccc1 [Example 4.2] | 0.1 nM | 2.43 nM
CN(C(=O)C1CC1)[C@H]1CCN(C(=O)c2ccc(NCc3cncc(F)c3)nc2)C1 [Example 1.38] | 0.65 nM | 5.19 nM
CC(=O)N(C)[C@H]1CCN(C(=O)c2ccc(NCc3cccc(C#N)c3)nc2)C1 [Example 1.1, N-[(3S)-1-(6-{[(3-Cyanophenyl)methyl]amino}pyridine-3-carbonyl)pyrrolidin-3-yl]-N-methylacetamide] | 1.27 nM | 5.04 nM
O=C(c1ccc(NCc2cccnc2)nc1)N1CCC2(CCOCC2)C1 [Example 8.11] | 0.34 nM | 3.3 nM
C[C@@H](Nc1ccc(C(=O)N2CC[C@H](N(C)C(=O)C3(C)CCC3)C2)cn1)c1cnccn1 [Example 1.30] | 0.4 nM | 3.28 nM
CC(=O)N(C)[C@H]1CCN(C(=O)c2ccc(NC3CCc4ncccc43)nc2)C1 (single isomer, unassigned) [Example 8.14] | 8.56 nM | 76.4 nM
CC1(C#N)CCN(C(=O)c2ccc(NCc3cccnc3)nc2)C1 (stereo not shown) [Example 3.3] | 0.24 nM | 1.6 nM
CN(C(=O)C1(C)CCC1)[C@H]1CCN(C(=O)c2ccc(NC3CCc4[nH]ncc43)nc2)C1 (stereo partly shown) [Example 1.26] | 0.29 nM | 1.98 nM
CC(=O)N(C)[C@H]1CCN(C(=O)c2ccc(NCc3ccccc3Cl)nc2)C1 [Example 1.4] | 0.48 nM | 4.85 nM
CC(=O)N(C)[C@H]1CCN(C(=O)c2ccc(NC(C)c3nccs3)nc2)C1 (single isomer, unassigned) [Example 5.1.A] | 0.09 nM | 1.82 nM
CN(c1ncccn1)[C@H]1CCN(C(=O)c2ccc(NCc3cccnc3)nc2)C1 [Example 8.5] | 0.14 nM | 16.3 nM
CC(=O)N(C)[C@H]1CCN(C(=O)c2ccc(N[C@@H](C)c3ccc(Cl)cc3)nc2)C1 [Example 9.4] | 0.27 nM | 4.23 nM
COc1ccncc1CNc1ccc(C(=O)N2CC[C@H](N(C)C(=O)C3CC3)C2)cn1 [Example 1.10] | 0.14 nM | 1.24 nM
Cc1ncccc1CNc1ccc(C(=O)N2CC[C@H](N(C)C(=O)C3(C)CCC3)C2)cn1 [Example 1.18] | 0.22 nM | 1.77 nM
CC(=O)N(C)[C@H]1CCN(C(=O)c2ccc(NC(C)(C)c3cccnc3)nc2)C1 [Example 8.7] | 0.16 nM | 3.29 nM
CC(=O)N(C)[C@H]1CCN(C(=O)c2ccc(NCc3cncc(F)c3)nc2)C1 [Example 1.43] | 0.86 nM | 3.24 nM
CNS(=O)(=O)c1cccc([C@H](C)Nc2ccc(C(=O)N3CC[C@H](N(C)C(C)=O)C3)cn2)c1 [Example 1.23] | 0.26 nM | 5.21 nM
CN(C(=O)C1CC1)[C@H]1CCN(C(=O)c2ccc(NC(C)(C)c3ccccc3)nc2)C1 [Example 2.1, N-Methyl-N-[(3S)-1-{6-[(2-phenylpropan-2-yl)amino]pyridine-3-carbonyl}pyrrolidin-3-yl]cyclopropanecarboxamide] | 0.06 nM | 3.57 nM
Cc1ccncc1CNc1ccc(C(=O)N2CC[C@H](N(C)C(=O)C3CC3)C2)cn1 [Example 1.5] | 0.07 nM | 1.59 nM
CC(=O)N(C)[C@H]1CCN(C(=O)c2ccc(NC3CCc4ncccc43)nc2)C1 (single isomer, unassigned) [Example 8.8] | 0.19 nM | 1.95 nM
CN(C(=O)C1(C)CCC1)[C@H]1CCN(C(=O)c2ccc(NC3(c4cncnc4)CC3)nc2)C1 [Example 8.10] | 0.33 nM | 2.16 nM
CC(=O)N(C)[C@H]1CCN(C(=O)c2ccc(NC3(c4ccc(C(F)(F)F)nc4)CC3)nc2)C1 [Example 1.20] | 0.23 nM | 4.74 nM
